What all share (format): cell-based
In data set [1] the test system is human microglial line derived from induced pluripotent stem cells (expressing Siglec-11). Nature of the data set: MTT cell viability of human microglia treated with sialic acid forms. The protocol: A human microglial line derived from induced pluripotent stem cells as described in WO 2010/125110 was used to study the effect of sialic acid forms with different chain length. Human microglial cells were cultured on 5 μg/ml poly-L-lysin (PLL, Sigma)-coated dishes in N2-medium containing DMEM/F12 culture medium (Gibco) supplemented with 1% N2 (Invitrogen), 0.48 mM L-glutamine (Gibco) and optionally 100 μg/ml penicillin/streptomycin (Gibco). Cells were cultured with high density and splitted 1:2 when required.
The effect of different length and fractions of oligosialic acids and polysialic acids on the human microglial lines were analyzed by determination of cell viability normalized to the cell number and after treatment with monomeric sialic acid (SA, molecular weight of 0.3 kDa, Nacalai Tesque ING, Japan) and sialic acids consisting of 3 monomers (Tri-SA; molecular weight of 0.9 kDa, Nacalai Tesque ING, Japan) and sialic acids consisting of 6 monomers (Hexa-SA; molecular weight of 1.9 kDa, Nacalai Tesque ING, Japan), PSA with a number of sialic acid monomers between 14 and 26 (PSA-20; low molecular weight of PSA between 4.3 and 8 kDa for >90% of the substance) and PSA with a length between 46 and 110 of sialic acid monomers (PSA-60; medium molecular weight of PSA between 14.2 and 34 kDa for >90% of the substance).
The microglial cells were cultured in medium as described above and treated in culture with the different sialic acid forms.
Cell viability was determined by the MTT (3-(4,5-Dimethylthiazol-2-yl)-2,5-diphenyltetrazolium bromide, Millipore) assay after 24 hours treatment with distinct sialic acid forms with different chain length and normalized to the cell number. The light absorbance of the purple formazan in living cells was determined by a spectrophotometer at a wavelength of 570 nm (Perkin Elmer, Envision Multiplate Reader).

The test system of data set [2] is LPS-activated human microglia. Nature of the data set: LPS-induced TNF-alpha gene transcription in human microglia (qRT-PCR). Conditions: LPS 1 μg/ml, 24 hours. Here is the method:
To analyse whether polysialic acid might interfere with a pro-inflammatory phenotype of human microglia, cultured human microglia were activated with lipopolysaccharides (LPS) and the effect of the distinct sialic acid forms including fractions of oligosialic and polysialic acid on the gene transcription of the pro-inflammatory cytokine tumor necrosis factor-alpha induced by the bacterial toxin LPS was determined. A human microglial line derived from induced pluripotent stem cells as described in WO 2010/125110 was used to study the effect of sialic acid forms with different chain length. Human microglial cells were cultured on 5 μg/ml poly-L-lysin (PLL, Sigma)-coated dishes in N2-medium containing DMEM/F12 culture medium (Gibco) supplemented with 1% N2 (Invitrogen), 0.48 mM L-glutamine (Gibco) and optionally 100 μg/ml penicillin/streptomycin (Gibco). Cells were cultured with high density and splitted 1:2 when required. The human induced pluripotent stem cell derived microglia line was treated with lipopolysaccharides (LPS, 1 μg/ml, Invivogen) and sialic acid forms with different chain length for 24 hours. Gene transcripts for tumor necrosis factor-α (TNF-alpha) were determined by quantitative RT-PCR and normalized to GAPDH. In detail, RNA isolation was performed using RNeasy Mini Kit (Qiagen) and transcription with the SuperScript First-Strand Synthesis System (Invitrogen). Quantitative RT-PCR with specific oligonucleotides (GAPDH: […] (SEQ ID NO: 1) and […] (SEQ ID NO: 2); TNFα: […] (SEQ ID NO: 3) and […] (SEQ ID NO: 4)) was performed using SYBR green PCR Master Mix with the Mastercycler epgradients S (Eppendorf). Results were normalized to GAPDH. Quantification using the delta-CT method was carried out.
(In qPCR the cycle at which signal appears reflects the starting amount.)

In data set [3] the test system is co-culture of human microglial line and iPS cell derived neurons. Nature of the data set: Microglial neurotoxicity in human microglia-neuron co-culture, 24 hours (neurite length). Conditions: 1.5 μM, 24 hours co-culture; FIG. 4D. Here is the method:
Next, the human microglial line was co-cultured for 24 hours with neurons derived from induced pluripotent stem cells and the effect of low molecular weight polysialic acid (PSA-20; 1.5 μM) on microglial neurotoxicity was evaluated. The human neurons were generated from human induced pluripotent stem cells (iPS cells). In vitro differentiation into neurons was carried out using a short modified protocol, which was used to induce primitive neural precursors. In detail, iPS cells were cultured on feeder cells to form small colonies. Next medium was changed to neural induction medium in the presence of LIF and three small molecules CHIR99021 (inhibitor of GSK-3β) and SB431542 (inhibitor of TGF-β and activin receptors), and compound E (inhibitor of γ-secretase) for 10 days. To expand the neural precursors, cells were dissociated to single cells by accutase and plated on poly-L-ornithine/fibronectin coated cell culture dishes with induction medium in the presence of leukaemia inhibitory factor (LIF), CHIR99021 and SB431542. […] Ten random photographs were taken for each condition by confocal laser scanning microscopy (Fluoview 1000, Olympus) and length of neuronal branches was measured by Neuron J software (NIH).

For poly-(α(2→8)Neu5Ac)n [PSA-20], the “metabolic activity of the microglial cells (MTT, normalized to cell number)” value in data set [1] (24 hours treatment, 0.15 μM, 0.5 μM and 1.5 μM, FIG. 2B) is reported as “did not affect the metabolic activity”. In data set [1] (summary of Example 3, MTT, 24 hours), the “Intact viability of human microglia” value is recorded as “Yes”. Also, the “LPS-induced gene transcription of TNF-alpha” value in data set [2] (0.15 μM, 0.5 μM and 1.5 μM, FIG. 3) was “reduced”. In data set [2] (summary of Example 4), the “Anti-inflammatory effect on TNF-alpha of LPS-activated human microglia” value is “Yes”. The “neurotoxic effect of human microglia on human neurons (relative neurite length)” value in data set [3] is recorded as “completely prevented the neurotoxic effect”.

These data come from patent publication US9944721B2, “Polysialic acid and use for treatment of neurodegenerative and neuroinflammatory diseases” (RHEINISCHE FRIEDRICH-WILHELMS UNIVERSITÄT BONN, priority 2013, dated 2018).
